Laboratory results as given in patent US7691844B2, “Nonpeptide substituted spirobenzoazepines as vasopressin antagonists” (Ortho-McNeil Pharmaceutical, Inc., priority 2000, dated 2010).

Experiments:
human V2 receptor = human V2 receptor (Homo sapiens, UniProt P30518); test: In-vitro receptor binding assay (3H-arginine-8-vasopressin), V2; conditions: for inhibition at 1 µM / Receptor Binding V2 (% Inh. @ concentration in μM): @ 1 μM
Procedure, shortened: (§1)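 Radioligand is 3H-arginine-8-vasopressin, incubated with receptor for one hour at room temperature, then filtered on GF/C plates and counted by scintillation. Non-specific binding was defined with 1.25 μM vasopressin, and results are given as % inhibition.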

V1a = V1a (Homo sapiens, UniProt P37288); test: In-vitro receptor binding assay (3H-arginine-8-vasopressin), V1a; conditions: for inhibition at 0.1 µM / inhibition at 1 µM / inhibition at 0.125 µM: read-out: Receptor Binding V1a (% Inh. @ concentration in μM)
Chain of V1a (P37288 whole entry): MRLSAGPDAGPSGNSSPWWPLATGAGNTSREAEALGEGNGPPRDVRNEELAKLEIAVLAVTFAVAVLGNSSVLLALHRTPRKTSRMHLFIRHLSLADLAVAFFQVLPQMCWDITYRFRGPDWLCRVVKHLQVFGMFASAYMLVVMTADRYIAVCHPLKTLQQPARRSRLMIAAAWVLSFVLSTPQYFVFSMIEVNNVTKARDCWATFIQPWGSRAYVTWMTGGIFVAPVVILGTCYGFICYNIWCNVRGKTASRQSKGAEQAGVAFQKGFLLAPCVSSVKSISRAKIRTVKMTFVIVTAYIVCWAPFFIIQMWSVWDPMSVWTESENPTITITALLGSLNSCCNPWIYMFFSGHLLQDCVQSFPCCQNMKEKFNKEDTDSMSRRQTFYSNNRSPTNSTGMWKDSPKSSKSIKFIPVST
Procedure, shortened: as §1

[1] = read-out: Receptor Binding V2 (% Inh. @ concentration in μM)

Chain of human V2 receptor (P30518 whole entry): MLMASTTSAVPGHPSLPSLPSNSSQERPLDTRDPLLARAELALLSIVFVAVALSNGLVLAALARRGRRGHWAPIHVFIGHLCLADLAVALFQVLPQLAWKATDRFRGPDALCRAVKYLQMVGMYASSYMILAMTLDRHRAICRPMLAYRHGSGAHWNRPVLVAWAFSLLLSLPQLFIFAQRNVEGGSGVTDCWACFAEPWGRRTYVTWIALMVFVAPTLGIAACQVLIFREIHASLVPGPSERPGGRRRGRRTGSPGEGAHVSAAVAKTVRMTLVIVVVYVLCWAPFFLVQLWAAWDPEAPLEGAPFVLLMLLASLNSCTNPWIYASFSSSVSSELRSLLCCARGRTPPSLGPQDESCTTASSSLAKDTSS

| Compound | inhibition at 1 µM (human V2 receptor; [1]) [%] | IC50 (V1a) [µM] | further results |
| --- | --- | --- | --- |
| COc1cc(NC(=O)c2cc(F)ccc2C)ccc1C(=O)N1CCC2(C=C(C(=O)O)CC2)Cc2ccccc21 (stereo not shown) [Compound 175] | – | – | IC50 (human V2 receptor): 0.11 µM; inhibition at 0.1 µM (V1a): 15% |
| CC(=O)c1ccn(-c2ccc(C(=O)N3CCC4(C=CCCC4)Cc4ccccc43)cc2F)c1 (stereo not shown) [Compound 177] | 30 | 0.044 | – |
| COc1cc(C(=O)N2CCC3(C=CCCC3)Cc3ccccc32)ccc1-n1ccc(CO)c1 (stereo not shown) [Compound 178, 4-[3-Methoxy-4-(3-hydroxymethylpyrrol-1-yl)benzoyl]-4-aza-[6,5]-spiro-[5,6]benzododec-2′-ene] | 53 | 0.013 | – |
| CC(C)CCOc1ccc(C(=O)N2CCC3(C=CCCC3)Cc3ccccc32)cc1 (stereo not shown) [Compound 179] | 15 | 0.096 | – |
| O=C(c1ccc(OC2CCCC2)cc1)N1CCC2(C=CCCC2)Cc2ccccc21 (stereo not shown) [Compound 180] | 20 | 0.088 | – |
| O=C(c1ccc(OCC2CC2)cc1)N1CCC2(C=CCCC2)Cc2ccccc21 (stereo not shown) [Compound 181] | 31 | 0.066 | – |
| COc1cc(C(=O)N2CCC3(C=CCCC3)Cc3ccccc32)ccc1NC(=O)c1cc(F)ccc1C (stereo not shown) [Compound 182] | – | 0.062 | IC50 (human V2 receptor): 0.228 µM |
| O=C(c1ccc(OCC2CCCCC2)cc1)N1CCC2(C=CCCC2)Cc2ccccc21 (stereo not shown) [Compound 183] | 18 | 0.25 | – |
| O=C(c1ccc(OCc2ccccc2)cc1)N1CCC2(C=CCCC2)Cc2ccccc21 (stereo not shown) [Compound 184] | 34 | 0.086 | – |
| O=C(c1ccc(OC2CCCCC2)cc1)N1CCC2(C=CCCC2)Cc2ccccc21 (stereo not shown) [Compound 185] | 42 | 0.23 | – |
| COc1cc(C(=O)N2CCC3(C=C(C(=O)NCCN(C)C)CC3)Cc3ccccc32)ccc1[N+](=O)[O-] (stereo not shown) [Compound 186, 4-(3-Methoxy-4-nitrobenzoyl)-4-aza-3′-[2-(N,N-dimethylamino)ethylcarboxamido]-[6,4]-spiro-[5,6]benzoundec-2′-ene] | 11 | – | inhibition at 1 µM (V1a): 48% |
| COc1cc(C(=O)N2CCC3(C=C(C(=O)NCCN(C)C)CC3)Cc3ccccc32)ccc1N (stereo not shown) [Compound 187, 4-(4-Amino-3-methoxybenzoyl)-4-aza-3′-[2-(N,N-dimethylamino)ethylcarboxamido]-[6,4]-spiro-[5,6]-benzoundec-2′-ene] | 7 | – | inhibition at 1 µM (V1a): 54% |
| CCN(C(=O)NCCCN(C)C)C(=O)C1=CC2(CC1)CCN(C(=O)c1ccc(N)c(OC)c1)c1ccccc1C2 (stereo not shown) [Compound 188] | 3 | – | inhibition at 1 µM (V1a): 27% |
| COc1cc(C(=O)N2CCC3(C=C(C(=O)NCCN(C)C)CC3)Cc3ccccc32)ccc1-n1ccc(C=O)c1 (stereo not shown) [Compound 189, 4-[3-Methoxy-4-(pyrrol-1-yl-3-carboxaldehyde)benzoyl]-3′-[2-(N,N-dimethylamino)ethylcarboxamido]-4-aza-[6,4]-spiro-[5,6]-benzoundec-2′-ene] | 13 | 0.045 | – |
| COc1cc(C(=O)N2CCC3(C=C(C(=O)NCCN(C)C)CC3)Cc3ccccc32)ccc1-n1ccc(CO)c1 (stereo not shown) [Compound 190, 4-[3-Methoxy-4-(3-hydroxymethylpyrrol-1-yl)benzoyl]-3′-[2-(N,N-dimethylamino)ethylcarboxamido]-4-aza-[6,4]-spiro-[5,6]-benzoundec-2′-ene] | 28 | 0.008 | – |
| CN(C)CCNC(=O)C1=CC2(CC1)CCN(C(=O)c1ccc(N)cc1)c1ccccc1C2 (stereo not shown) [Compound 191] | – | 1.2 | Receptor Binding V2 (% Inh. @ concentration in μM) (human V2 receptor): 15% @ 1 |

| Compound | inhibition at 1 µM (human V2 receptor; [1]) [%] | IC50 (V1a) [µM] | further results |
| --- | --- | --- | --- |
| CN(C)CCNC(=O)C1=C[C@@]2(CC1)CCN(C(=O)c1ccc(N)cc1)c1ccccc1C2 [Compound 192] | 0 | 5.4 | – |
| CN(C)CCNC(=O)C1=CC2(CC1)CCN(C(=O)c1ccc(N)cc1)c1ccccc1C2 (stereo not shown) [Compound 193] | – | 1.1 | Receptor Binding V2 (% Inh. @ concentration in μM) (human V2 receptor): 0% @ 1 |
| COc1cc(N)ccc1C(=O)N1CCC2(C=C(C(=O)NCCN(C)C)CC2)Cc2ccccc21 (stereo not shown) [Compound 194] | 6 | – | inhibition at 1 µM (V1a): 7% |
| COc1cc(-n2ccc(C=O)c2)ccc1C(=O)N1CCC2(C=C(C(=O)NCCN(C)C)CC2)Cc2ccccc21 (stereo not shown) [Compound 195] | 18 | 0.3 | – |
| COc1cc(-n2ccc(CO)c2)ccc1C(=O)N1CCC2(C=C(C(=O)NCCN(C)C)CC2)Cc2ccccc21 (stereo not shown) [Compound 196] | 34 | 0.034 | – |
| COc1cc(C(=O)N2CC[C@]3(C=C(C(=O)NCCN(C)C)CC3)Cc3ccccc32)ccc1-n1ccc(CO)c1 [Compound 197] | – | 0.006 | inhibition at 0.1 µM (human V2 receptor; [1]): 0% |
| COc1cc(C(=O)N2CC[C@@]3(C=C(C(=O)NCCN(C)C)CC3)Cc3ccccc32)ccc1-n1ccc(CO)c1 [Compound 198] | – | 0.016 | inhibition at 0.1 µM (human V2 receptor; [1]): 0% |
| O=C(O)c1ccn(-c2ccc(C(=O)N3CCC4(C=CCCC4)Cc4ccccc43)cc2)c1 (stereo not shown) [Compound 199] | – | – | inhibition at 0.1 µM (human V2 receptor; [1]): 2%; inhibition at 0.1 µM (V1a): 0% |
| CN(C)CCNC(=O)C1=CC2(CC1)CCN(C(=O)c1ccc(-n3ccc(C=O)c3)cc1)c1ccccc1C2 (stereo not shown) [Compound 201] | – | – | inhibition at 0.1 µM (human V2 receptor; [1]): 0%; inhibition at 0.1 µM (V1a): 44% |
| Cc1ccn(-c2ccc(C(=O)N3CCC4(C=C(C(=O)NCCN(C)C)CC4)Cc4ccccc43)cc2)n1 (stereo not shown) [Compound 209] | 43 | 0.055 | – |
| CON(C)Cc1ccn(-c2ccc(C(=O)N3CCC4(C=C(C(=O)NCCN(C)C)CC4)Cc4ccccc43)cc2)c1 (stereo not shown) [Compound 210] | 22 | – | inhibition at 0.125 µM (V1a): 6% |
| COC(=O)C1=CC2(CC1)CCN(C(=O)c1ccc(-n3ccc(C)n3)c(N)c1)c1ccccc1C2 (stereo not shown) [Compound 211] | 45 | – | inhibition at 0.125 µM (V1a): 55% |
| COC(=O)C1=CC2(CC1)CCN(C(=O)c1ccc(-n3nccc3C)c(N)c1)c1ccccc1C2 (stereo not shown) [Compound 212] | 16 | – | inhibition at 0.125 µM (V1a): 29% |
| COC(=O)C1=CC2(CC1)CCN(C(=O)c1ccc(-n3ccc(C)n3)c(N(C)C)c1)c1ccccc1C2 (stereo not shown) [Compound 213] | 55 | – | inhibition at 0.125 µM (V1a): 63% |
| COC(=O)C1=CC2(CC1)CCN(C(=O)c1ccc(NC(=O)c3cc(F)ccc3F)cc1)c1ccccc1C2 (stereo not shown) [Compound 218] | – | 0.046 | inhibition at 0.2 µM (human V2 receptor; @ 0.2 μM, read-out: Receptor Binding V2 (% Inh. @ concentration in μM)): 23% |
| CC(=O)N1CCC(Oc2ccc(C(=O)N3CCC4(C=CCCC4)Cc4ccccc43)cc2)CC1 (stereo not shown) [Compound 224, 4-(4-(N-acetylpiperidin-4-yloxy)benzoyl)-4-aza-[6,5]-spiro-[5,6]-benzododec-2′-ene] | – | – | Receptor Binding V2 (% Inh.) (human V2 receptor; concentration not given): 0%; inhibition at 0.1 µM (V1a): 41% |
